Experimental data published in ChEMBL document CHEMBL4000235, “Discovering novel 7-azaindole-based series as potent AXL kinase inhibitors” (Bioorg Med Chem Lett, 2017).

Assays:
[1] = biological target: T1, Tyrosine-protein kinase receptor UFO (Homo sapiens, UniProt P30530); test: Inhibition of recombinant human His-tagged AXL expressed in insect cells after 60 mins by Z'-LYTE assay
T1 sequence (P30530 whole entry): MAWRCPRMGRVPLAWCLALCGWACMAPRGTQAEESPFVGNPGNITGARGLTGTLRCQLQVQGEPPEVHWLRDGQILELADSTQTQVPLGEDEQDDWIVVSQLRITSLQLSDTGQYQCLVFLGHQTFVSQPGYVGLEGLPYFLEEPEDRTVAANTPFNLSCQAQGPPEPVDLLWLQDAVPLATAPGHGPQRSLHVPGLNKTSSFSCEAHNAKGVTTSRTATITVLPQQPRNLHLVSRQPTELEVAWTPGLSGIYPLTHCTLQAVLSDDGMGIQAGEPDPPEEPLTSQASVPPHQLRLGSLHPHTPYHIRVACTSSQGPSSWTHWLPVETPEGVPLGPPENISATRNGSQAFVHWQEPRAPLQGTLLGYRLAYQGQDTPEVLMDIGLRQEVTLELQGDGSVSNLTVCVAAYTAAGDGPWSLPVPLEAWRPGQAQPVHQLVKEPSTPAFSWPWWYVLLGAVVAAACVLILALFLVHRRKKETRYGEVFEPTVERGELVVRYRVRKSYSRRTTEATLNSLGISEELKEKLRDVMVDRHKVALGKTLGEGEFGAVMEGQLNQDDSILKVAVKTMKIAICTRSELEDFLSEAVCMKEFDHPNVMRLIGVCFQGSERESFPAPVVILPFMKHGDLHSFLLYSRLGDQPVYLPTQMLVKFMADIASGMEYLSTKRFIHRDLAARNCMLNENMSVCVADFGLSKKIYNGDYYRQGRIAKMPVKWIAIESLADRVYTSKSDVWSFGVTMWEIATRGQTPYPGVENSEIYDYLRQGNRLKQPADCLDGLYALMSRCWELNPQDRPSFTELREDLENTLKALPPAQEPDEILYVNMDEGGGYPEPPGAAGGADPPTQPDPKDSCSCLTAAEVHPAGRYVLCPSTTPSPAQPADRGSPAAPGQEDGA

[2] = biological target: Tyrosine-protein kinase receptor UFO (Homo sapiens) (UniProt P30530); settings: 1 uM
Description: Inhibition of recombinant human His-tagged AXL expressed in insect cells at 1 uM after 60 mins by Z'-LYTE assay relative to control

IC50 [1] [µM]	inhibition [2] [%]	Compound
> 1	–	O=C(O)c1cc(-c2c[nH]c3ncc(-c4ccccc4)cc23)ccc1F
0.524	75	c1ccc(-c2cnc3[nH]cc(-c4ccc(-c5nnn[nH]5)cc4)c3c2)cc1
0.182	–	O=C(O)c1ccc(-c2c[nH]c3ncc(-c4ccccc4)cc23)cc1
